According to publication PMC6792350 (Environmental Health Perspectives, 2019):

Key:
[1] = Noncompartmental toxicokinetic analysis of plasma after IV dosing in piglets
Experimental: Table 1 summarizes the protocol of the experiments and the plasma and urine datasets further considered for TK analyses. A first experiment (Exp. 1) was performed in 8 male piglets age 42 d ( 20.8±1.6kg BW) to investigate oral BPA TK. […] BPA data obtained after IV BPA administrations had already been used to evaluate human BPA clearance using an allometric approach ([Collet et al. 2015]).
For the IV administrations, BPA powder was dissolved in ethanol–propylene glycol (1:49, vol:vol) at 50mg/mL (Exp.1 and 2) and in ethanol–saline (1:2, vol:vol) at 23mg/mL (Exp. 5).
During the first 24 h of sampling, the piglets were housed individually in stainless steel cages.
(§1) The plasma analytes concentration–time data from individual piglets were used to derive the maximum concentration (Cmax), and the time to maximum concentration (Tmax). The area under the plasma concentration–time curves from dosing time to the time of the last measurable concentration ( AUC0–tlast ) were calculated using the linear trapezoidal rule (Equation 1). (1) AUC0–tlast=∑0tlast(Ci−1+Ci/2)×(ti−ti−1) where Ci is the concentration obtained at the time i ( ti ).
(§2) The area under the plasma concentration time curve from t=0 to infinity ( AUC0–inf ) was obtained using Equation 2. (2) AUC0–inf=AUC0–tlast+AUCtlast–inf where AUCtlast–inf is the area extrapolated from the last observation to infinity, calculated according to Equation 3: (3) AUCtlast–inf=Clast/λz where Clast is the last observed quantifiable plasma concentration, and λz is the slope of the terminal phase, as estimated by linear regression using the best fit option of Phoenix®.

[2] = Cumulative urinary excretion after IV and oral dosing in piglets
Experimental: Blood samples were collected in heparinized polypropylene tubes, immediately chilled in ice and centrifuged for 10 min at 3,000×g at 4°C, and the supernatant plasma was stored in polypropylene tubes at −20°C until assay. Total urine was filtered through a nylon mesh ( 250μm ) and collected in glass containers and chilled in ice. The volume of each urine sample and the sampling time were recorded. A urine sample was immediately chilled in ice and centrifuged for 10 min at 3,000×g at 4°C and stored at −20°C until assayed.
Analytes were quantified by Acquity UPLC-MS/MS (Waters Corporation).
All TK analyses were performed using the Phoenix® NLME (version 8.0; Pharsight Corporation). The plasma mass concentrations were converted into molar concentrations before analysis.

[3] = design: method as in EFSA CEF Panel 2015; settings: ref EFSA CEF Panel 2015; cited from earlier work
[4] = Population semiphysiologically based 9-compartment TK model (NLME) of plasma and urine data in piglets; settings: for bioavailability: po; for k el: plasma and urine, other: intravenous and oral (data sets combined), tvK30, elimination rate constant from plasma to urine
Experimental: The NLME model was therefore developed by combining the plasma and urinary data sets from the five TK experiments carried out in piglets, except for the urinary BPA concentration obtained after oral administration of BPA.
Different compartmental models and submodels were tested and compared using the likelihood ratio test (LRT). The primary parameters of the model, namely the volumes of distribution ( VBPA , VBPAG , VBPS , VBPSG ) and the first-order rate constants ( Kij ) and their associated precisions [standard error (SE)] were estimated by minimizing an objective function value (OFV) expressed as minus twice the log of the likelihood estimation ( −2LL ).
The between-subject variability (BSV) of the parameters was evaluated using the exponential model θparameter_i=θtv_parameter×exp(ηi) , where θparameter_i is the parameter estimated for the i^th individual, θtv_parameter is the typical population value of the parameter, and ηi is the deviation associated with the i^th individual from the corresponding value of the parameter at the population level. The distribution of ηi was assumed to be normal with a mean of 0 and a variance ω² . The BSV was reported as a coefficient of variation (CV) in the original scale CV(%)=100× exp (ω^2)−1 .
The residual variance was modeled using a combined additive and proportional error model Cobsij=Cpredij(1+ε1ij)+ε2ij where Cobsij and Cpredij are respectively the j^th observed and predicted concentrations for the i^th individual and ε1ij and ε2ij the multiplicative and additive residual errors.
The bootstrap tool (20 replicates) was used to evaluate the mean, median, SE, and coefficient of variation of the parameter estimates. The predictive ability of the model was checked graphically by plotting Visual Predictive Check plots to compare the observed data with the selected quantiles (here 20th, 50th and 80th percentiles) of data simulated using the model and obtained from 200–1,000 replicates from each animal based on the structure of the original data (i.e., dosing, timing and number of samples).
For the LRT test, the critical value of the χ^2 distribution considered for a given nominal risk and a given number of degrees of freedom was obtained using the Excel function CHISQ.INV.RT().
Figure 1. Schematic representation of the compartmental model. […] The link between the two central compartments was modeled with a compartment (CP2) that should be viewed as the liver. […] The fraction of absorbed BPA that is not hepatically transformed reaches the CP3 via K23 . The exchanges between CP2 and CP3 are bilateral, K32 being the rate constant between CP3 and CP2 and K23 the rate constant between CP2 and CP3. […] It was assumed that no phase-two metabolite other than BPAG (BPSG) was formed.
(12) Bioavailability=K12/K12+K110+K10×(1−K25/K25+K23) with K10 , K12 , K110 , K23; K25 as defined above.

in vivo = assay: in vivo
Experimental: Table 1 summarizes the protocol of the experiments and the plasma and urine datasets further considered for TK analyses.
For administrations by gavage, BPA powder was dissolved in ethanol–corn oil (1:9, vol:vol) at 100mg/mL (Exp. 1).
as §1, §2

[5] = human; cited from earlier work
[6] = no reference given; cited from earlier work

CC(C)(c1ccc(O)cc1)c1ccc(O)cc1 [BPA, bisphenol A]
time after which plasma concentrations were below the LOQ ([1]; after IV BPA and BPS administration): > 12 h
AUC0-tlast/dose ([1]; pig, in vivo, iv): 0.34±0.14 μmol×h/L per μmol/kg
clearance ([1]; pig, in vivo, iv): 56.8 mL/min/kg
part of the dose eliminated in urine ([2]; 3 h after dosing): About half
unconjugated compound in urine, fraction of IV dose ([2]; IV BPA and BPS doses): 0.044±0.028%
tolerable daily intake (TDI), fixed temporarily [3]: 4 μg/kg BW per day
tvK10, rate constant of unabsorbed compound from the gastrointestinal tract, Mean ([4]; bootstrap mean): 0.223 h⁻¹
tvK12, rate constant of absorption by enterocytes passing directly into the portal blood, Mean ([4]; bootstrap mean): 0.365 h⁻¹
tvK23, distribution rate constant liver to plasma, Mean ([4]; bootstrap mean): 1.53 h⁻¹
tvK32, distribution rate constant, Mean ([4]; bootstrap mean): 3.72 h⁻¹
tvK34, distribution rate constant, Mean ([4]; bootstrap mean): 5.90 h⁻¹
tvK43, distribution rate constant, Mean ([4]; bootstrap mean): 3.89 h⁻¹
tvK110, rate constant of compound absorbed by enterocytes locally subjected to glucuronidation, Mean ([4]; bootstrap mean): 0.349 h⁻¹
tvK10, rate constant of unabsorbed compound from the gastrointestinal tract, Median ([4]; bootstrap median): 0.219 h⁻¹
tvK12, rate constant of absorption by enterocytes passing directly into the portal blood, Median ([4]; bootstrap median): 0.371 h⁻¹
tvK23, distribution rate constant liver to plasma, Median ([4]; bootstrap median): 1.32 h⁻¹
tvK32, distribution rate constant, Median ([4]; bootstrap median): 3.31 h⁻¹
tvK34, distribution rate constant, Median ([4]; bootstrap median): 4.14 h⁻¹
tvK43, distribution rate constant, Median ([4]; bootstrap median): 3.68 h⁻¹
tvK110, rate constant of compound absorbed by enterocytes locally subjected to glucuronidation, Median ([4]; bootstrap median): 0.318 h⁻¹
CL renal ([4]; both, pig, in vivo): 0.0333 mL/min/kg
mean volume of the central compartment ([4]; both, pig, in vivo): 1.0 L/kg
metabolic hepatic clearance as fraction of plasma clearance ([4]; both, pig, in vivo): higher than 99%
renal clearance as fraction of plasma clearance estimated by noncompartmental analysis ([4]; both, pig, in vivo): 0.06%
tvV, volume of the central compartment, Mean ([4]; both, pig, in vivo): 1.03 L/kg
tvV, volume of the central compartment, Median ([4]; both, pig, in vivo): 1.00 L/kg
bioavailability ([4]; both, pig, in vivo): 0.5%
k el ([4]; both, pig, Mean, bootstrap mean): 7.22e-07 s⁻¹
k el ([4]; both, pig, Median, bootstrap median): 5.56e-07 s⁻¹
fraction of the absorbed dose glucuronidated in the gut ([4]; oral, % of absorbed dose): 44%
fraction of the absorbed dose reaching the liver / first-pass glucuronidated in the liver ([4]; oral, % of absorbed dose): 53%
fraction of the dose reaching the liver unchanged ([4]; oral, % of administered dose): 40.3%
fraction of the dose subjected to hepatic first-pass effect ([4]; oral, % of administered dose): 39.9%
hepatic first-pass effect: fraction of compound reaching the liver that is glucuronidated ([4]; oral, % of the fraction reaching the liver): 99%
Fraction of absorbed BPA undergoing a first-pass effect (gut and liver), Mean ([4]; oral, bootstrap mean): 0.988
Fraction of administered compound glucuronidated by the gastro-intestinal tract, Mean ([4]; oral, bootstrap mean): 0.360
Fraction of administered compound reaching the liver by the portal blood flow, Mean ([4]; oral, bootstrap mean): 0.405
fraction absorbed by the gastro-intestinal tract, Mean ([4]; oral, bootstrap mean): 0.765
Fraction of absorbed BPA undergoing a first-pass effect (gut and liver), Median ([4]; oral, bootstrap median): 0.989
Fraction of administered compound glucuronidated by the gastro-intestinal tract, Median ([4]; oral, bootstrap median): 0.340
Fraction of administered compound reaching the liver by the portal blood flow, Median ([4]; oral, bootstrap median): 0.403
fraction absorbed by the gastro-intestinal tract, Median ([4]; oral, bootstrap median): 0.766
CL renal ([4]; pig, in vivo): 0.0333 mL/min/kg
renal clearance, Median ([4]; pig, in vivo): 0.0333 mL/min/kg
bioavailability ([4]; pig, in vivo): 0.5%
AUClast/dose (in vivo; both, pig, in vivo, po): 0.0024±0.0027 μmol×h/L per μmol/kg BW
Cl_F (apparent clearance) (in vivo; both, pig, in vivo, po): 21170 ± 20830 mL/min/kg
Tmax (in vivo; both, pig, in vivo, po, Tmax): 57 ± 33 min
Tmax (in vivo; both, pig, in vivo, po, time to maximal plasma concentration): ~60 min
mean fraction of total (parent plus glucuronide) in plasma that is unconjugated (in vivo; oral dosing, piglets): 0.16%
intestinal intrinsic clearance [5]: 7.22 mL/min/kg
liver intrinsic clearance [5]: 61.2 mL/min/kg
LogP [6]: 3.3
